What was measured:
[1] = tested on: Staphylococcus aureus DSM 11729; assay: Antibacterial testing (CFU/ml count, with and without white light); type: cell-based; conditions: for antibacterial activity of compounds which carry just one bromine atom / antibacterial activity in the presence of complex media (serum addition): bacterium not given; for antibacterial activity in the presence of complex media (serum addition): PBS supplemented with 10% horse blood serum; for antibacterial activity against S. aureus in the absence of light: highest tested concentration of 100 μmol
Method: The organisms studied were Staphylococcus aureus DSM 11729, Gram-positive and Pseudomonas aeruginosa DSM 1117, Gram-negative.
Cultures cells are suspended in sterile phosphate-buffered saline (PBS) or sterile PBS supplemented with 10% sterile horse blood serum. The bacterial suspensions are placed into sterile black well plates with clear bottoms. Concentrations of photosensitizer used in the study were as follows: 100 μM, 10 μM and 1 μM.
After an incubation time period of 30 minutes, the samples are exposed to white light, with a power density and irradiation time resulting in an energy fluency of about 100 J/cm^2. Control plates contained no photosensitizer and are not exposed to laser light. The control samples for dark toxicity are only exposed to photosensitizer without any illumination.
After irradiation, the samples are removed and suspended again in the culture media. The numbers of colony-forming units (CFU/ml) are enumerated after an adequate incubation time period.

[2] = tested on: HT29 tumor cell line and other cell lines; assay: Cell tests: dark toxicity and phototoxicity, XTT cell viability assay; type: cell-based, human, mouse; conditions: cell tests of example 3; 2 or 10 μM
Method: The photosensitizing activity was determined in the following cell lines: • HT29 (human colon adenocarcinoma cell line) • L929 (mouse fibroblast cell line) • A431 (human epidermoid carcinoma cell line) • A253 (submaxillary salivary gland, epidermoid cell line) • CAL-27 (human tongue squamous cell carcinoma cell line) • J774A.1 (Mouse BALB/c monocyte macrophage).
The cell lines were grown in DMEM (c.c.pro GmbH) supplemented with 10% heat-inactivated fetal calf serum (FCS, c.c.pro GmbH), 1% penicillin (10000 IU) and streptomycin (10000 μg/ml, c.c.pro GmbH). Cells were kept as a monolayer culture in a humidified incubator (5% CO2 in air at 37° C.).
A photosensitizer stock solution (2 mM) was performed in DMSO and was kept in the dark at 4° C. Further dilution was performed in DMEM medium without phenol red supplemented with 10% FCS to reach a final photosensitizer concentration of 2 or 10 μM, respectively.
After seeding the cells in micro plates, the cells were incubated with fresh medium (DMEM without phenol red) containing 10% FCS with 2 or 10 μM of the photosensitizer for 24 h before light exposure. […]
The cell viability was assessed by the XTT assay. […]
The absorbance of the samples was measured with a microplate reader (infinite 200, Tecan Group Ltd.) at a wavelength of 490 nm.

Row | Molecule | antibacterial activity of compounds which carry just one bromine atom [1] | specific activity against bacteria ([1]; compared with toxicity in cells) | toxicity in cells [2] | antibacterial activity in the presence of complex media (serum addition) [1] | antibacterial activity against S. aureus in the absence of light [1]
1 | 2-Bromo-8-(4-butyloxy-2,3,5,6-tetrafluorophenyl)-boron dipyrromethene [Example 4.11] | strong antibacterial activity |  |  |  | 
2 | 1,3,5,7-Tetramethyl-2,6-dibromo-8(4-propargylamino-3-nitrophenyl)-boron dipyrromethene [Example 4.5] |  | specifically active against bacteria | low toxicity |  | 
3 | C#CCNc1ccc(C2=C3C=CC=[N+]3[B-](F)(F)n3cc(Br)cc32)cc1[N+](=O)[O-] [Example 4.1, 2-Bromo-8-(4-N-propargylamino-3-nitrophenyl)-boron dipyrromethene] | strong antibacterial activity |  |  | antibacterial activity is also observed | high antibacterial activity
4 | 1,3,5,7-Tetramethyl-2,6-dibromo-8-(4-N-hydroxy-ethylamino-3-nitrophenyl)-boron dipyrromethene [Example 4.2] |  |  |  | antibacterial activity is also observed | high antibacterial activity
